Measured values as given in PubChem BioAssay AID2060611 (Molecular Pharmacology Branch, DTP, NCI, 2025).
Values joined by “and” are separate entries in the source; they are usually repeats but may differ in a detail not shown here. Identical values can stand only once.

Test system: 628569-122-R-J1-PDC complex spheroid viability
Experiment: Anticancer human tumor 628569-122-R-J1-PDC patient-derived head and neck squamous carcinoma cell line growth inhibition [CLK]
Details: for viability, T/C: stronger effect = lower value
Method in brief: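 Multi-cell-type spheroids combined patient-derived tumor cells with HUVEC endothelial cells and human mesenchymal stem cells. Paired agents were dosed in half-log steps down from about clinical Cmax, or from 10 microM where Cmax was unknown.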

[1] = curve of first compound, second compound 0.0316 µM
[2] = curve of first compound, second compound 0.1 µM
[3] = curve of first compound, second compound 0.316 µM
[4] = curve of first compound, second compound 1 µM
[5] = curve of first compound, second compound 3.16 µM
[6] = curve of first compound, second compound 10 µM
[7] = second compound 0.0316 µM, first compound 0.0316 µM
[8] = second compound 0.0316 µM, first compound 0.1 µM
[9] = second compound 0.0316 µM, first compound 0.316 µM
[10] = second compound 0.0316 µM, first compound 1 µM
[11] = second compound 0.1 µM, first compound 0.0316 µM
[12] = second compound 0.1 µM, first compound 0.1 µM
[13] = second compound 0.1 µM, first compound 0.316 µM
[14] = second compound 0.1 µM, first compound 1 µM
[15] = second compound 0.316 µM, first compound 0.0316 µM
[16] = second compound 0.316 µM, first compound 0.1 µM
[17] = second compound 0.316 µM, first compound 0.316 µM
[18] = second compound 0.316 µM, first compound 1 µM
[19] = second compound 1 µM, first compound 0.0316 µM
[20] = second compound 1 µM, first compound 0.1 µM
[21] = second compound 1 µM, first compound 0.316 µM
[22] = second compound 1 µM, first compound 1 µM
[23] = second compound 3.16 µM, first compound 0.0316 µM
[24] = second compound 3.16 µM, first compound 0.1 µM
[25] = second compound 3.16 µM, first compound 0.316 µM
[26] = second compound 3.16 µM, first compound 1 µM
[27] = second compound 10 µM, first compound 0.0316 µM
[28] = second compound 10 µM, first compound 0.1 µM
[29] = second compound 10 µM, first compound 0.316 µM
[30] = second compound 10 µM, first compound 1 µM
[31] = second compound 0.0316 µM, first compound 3.16 µM
[32] = second compound 0.0316 µM, first compound 10 µM
[33] = second compound 0.1 µM, first compound 3.16 µM
[34] = second compound 0.1 µM, first compound 10 µM
[35] = second compound 0.316 µM, first compound 3.16 µM
[36] = second compound 0.316 µM, first compound 10 µM
[37] = second compound 1 µM, first compound 3.16 µM
[38] = second compound 1 µM, first compound 10 µM
[39] = second compound 3.16 µM, first compound 3.16 µM
[40] = second compound 3.16 µM, first compound 10 µM
[41] = second compound 10 µM, first compound 3.16 µM
[42] = second compound 10 µM, first compound 10 µM
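Also: spheroids exposed to agents for seven days before readout.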
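For viability, T/C in this document: 100% = DMSO vehicle control viability.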

## CCN1CCN(Cc2ccc(Nc3ncc(F)c(-c4cc(F)c5nc(C)n(C(C)C)c5c4)n3)nc2)CC1 + CNC(=O)c1ccc(Nc2nc(OC3CCCC3)c3c(-c4ccc5nc(C)oc5c4)c[nH]c3n2)c(OC)c1
[1]
  IC50: > 1 µM
[2]
  IC50: > 1 µM
[3]
  IC50: > 1 µM
[4]
  IC50: < 0.00316 µM
[5]
  IC50: < 0.00316 µM
[6]
  IC50: < 0.00316 µM
Second compound 0.0316 µM, first compound 0.00316 µM
  viability, T/C: 81.5%
Second compound 0.0316 µM, first compound 0.01 µM
  viability, T/C: 94.4%
[7]
  viability, T/C: 76.3%
[8]
  viability, T/C: 67.7%
[9]
  viability, T/C: 98.7%
[10]
  viability, T/C: 155%
Second compound 0.1 µM, first compound 0.00316 µM
  viability, T/C: 58.5%
Second compound 0.1 µM, first compound 0.01 µM
  viability, T/C: 64%
[11]
  viability, T/C: 56.4%
[12]
  viability, T/C: 61.7%
[13]
  viability, T/C: 108%
[14]
  viability, T/C: 137%
Second compound 0.316 µM, first compound 0.00316 µM
  viability, T/C: 57.6%
Second compound 0.316 µM, first compound 0.01 µM
  viability, T/C: 55.6%
[15]
  viability, T/C: 51.7%
[16]
  viability, T/C: 61%
[17]
  viability, T/C: 95.3%
[18]
  viability, T/C: 135%
Second compound 1 µM, first compound 0.00316 µM
  viability, T/C: 45.5%
Second compound 1 µM, first compound 0.01 µM
  viability, T/C: 49.2%
[19]
  viability, T/C: 50.7%
[20]
  viability, T/C: 63%
[21]
  viability, T/C: 92.6%
[22]
  viability, T/C: 122%
Second compound 3.16 µM, first compound 0.00316 µM
  viability, T/C: 48.2%
Second compound 3.16 µM, first compound 0.01 µM
  viability, T/C: 55.7%
[23]
  viability, T/C: 57.1%
[24]
  viability, T/C: 49.6%
[25]
  viability, T/C: 82.9%
[26]
  viability, T/C: 97.9%
Second compound 10 µM, first compound 0.00316 µM
  viability, T/C: 46.1%
Second compound 10 µM, first compound 0.01 µM
  viability, T/C: 38.8%
[27]
  viability, T/C: 46.1%
[28]
  viability, T/C: 49.3%
[29]
  viability, T/C: 76.4%
[30]
  viability, T/C: 99.2%

## O=C(c1cc(Cc2n[nH]c(=O)c3ccccc23)ccc1F)N1CCN(C(=O)C2CC2)CC1 + CNC(=O)c1ccc(Nc2nc(OC3CCCC3)c3c(-c4ccc5nc(C)oc5c4)c[nH]c3n2)c(OC)c1
[1]
  IC50: > 10 µM
[2]
  IC50: > 10 µM
[3]
  IC50: 1.98 µM
[4]
  IC50: < 0.0316 µM
[5]
  IC50: < 0.0316 µM
[6]
  IC50: 0.0316 µM
[7]
  viability, T/C: 99.7%
[8]
  viability, T/C: 105%
[9]
  viability, T/C: 102%
[10]
  viability, T/C: 81.9%
[31]
  viability, T/C: 103%
[32]
  viability, T/C: 61.7%
[11]
  viability, T/C: 63.2%
[12]
  viability, T/C: 60%
[13]
  viability, T/C: 60.7%
[14]
  viability, T/C: 59.6%
[33]
  viability, T/C: 62.8%
[34]
  viability, T/C: 41.7%
[15]
  viability, T/C: 50.8%
[16]
  viability, T/C: 55.5%
[17]
  viability, T/C: 56.6%
[18]
  viability, T/C: 51.9%
[35]
  viability, T/C: 47.5%
[36]
  viability, T/C: 39.7%
[19]
  viability, T/C: 39.8%
[20]
  viability, T/C: 49.3%
[21]
  viability, T/C: 47.5%
[22]
  viability, T/C: 47%
[37]
  viability, T/C: 45.2%
[38]
  viability, T/C: 33.2%
[23]
  viability, T/C: 43.7%
[24]
  viability, T/C: 44.4%
[25]
  viability, T/C: 41.8%
[26]
  viability, T/C: 41.2%
[39]
  viability, T/C: 42.5%
[40]
  viability, T/C: 31.5%
[27]
  viability, T/C: 46.6%
[28]
  viability, T/C: 41.8%
[29]
  viability, T/C: 49.3%
[30]
  viability, T/C: 39.1%
[41]
  viability, T/C: 56.1%
[42]
  viability, T/C: 26.5%

## CNC(=O)c1ccc(Nc2nc(OC3CCCC3)c3c(-c4ccc5nc(C)oc5c4)c[nH]c3n2)c(OC)c1
Compound 0.0316 µM
  viability, T/C: 95.7% [middle of 12 runs]
Compound 0.1 µM
  viability, T/C: 60.6% [middle of 12 runs]
Compound 0.316 µM
  viability, T/C: 54.9% [middle of 12 runs]
Compound 1 µM
  viability, T/C: 44.6% [middle of 12 runs]
Compound 3.16 µM
  viability, T/C: 40.7% [middle of 12 runs]
Compound 10 µM
  viability, T/C: 41.4% [middle of 12 runs]

## C=C(F)C(=O)N1CCN(c2nc(OCC3CCCN3C)nc3c2CCN(c2cccc4cccc(Cl)c24)C3)CC1CC#N (centres undefined) + CNC(=O)c1ccc(Nc2nc(OC3CCCC3)c3c(-c4ccc5nc(C)oc5c4)c[nH]c3n2)c(OC)c1
[1]
  IC50: 5.89 µM
[2]
  IC50: 4.25 µM
[3]
  IC50: 3.64 µM
[4]
  IC50: 0.0316 µM
[5]
  IC50: < 0.0316 µM
[6]
  IC50: < 0.0316 µM
[7]
  viability, T/C: 84.5%
[8]
  viability, T/C: 85.8%
[9]
  viability, T/C: 88.8%
[10]
  viability, T/C: 112%
[31]
  viability, T/C: 126%
[32]
  viability, T/C: 8.03%
[11]
  viability, T/C: 58.8%
[12]
  viability, T/C: 53.8%
[13]
  viability, T/C: 65.5%
[14]
  viability, T/C: 64%
[33]
  viability, T/C: 90.2%
[34]
  viability, T/C: 1.94%
[15]
  viability, T/C: 54.6%
[16]
  viability, T/C: 47.9%
[17]
  viability, T/C: 49.3%
[18]
  viability, T/C: 56.3%
[35]
  viability, T/C: 72.1%
[36]
  viability, T/C: 6.63%
[19]
  viability, T/C: 46.5%
[20]
  viability, T/C: 42.9%
[21]
  viability, T/C: 43.7%
[22]
  viability, T/C: 49%
[37]
  viability, T/C: 62.8%
[38]
  viability, T/C: 1.4%
[23]
  viability, T/C: 46.2%
[24]
  viability, T/C: 43.3%
[25]
  viability, T/C: 45.4%
[26]
  viability, T/C: 51.5%
[39]
  viability, T/C: 48.1%
[40]
  viability, T/C: 0.86%
[27]
  viability, T/C: 53.9%
[28]
  viability, T/C: 36.1%
[29]
  viability, T/C: 46.7%
[30]
  viability, T/C: 54.5%
[41]
  viability, T/C: 43.8%
[42]
  viability, T/C: 5.33%

## C#Cc1c(F)ccc2cc(O)cc(-c3ncc4c(N5CC6CCC(C5)N6)nc(OCC56CCCN5CC(F)C6)nc4c3F)c12 (centres undefined)
Compound 0.0316 µM
  viability, T/C: 88.1% and 89.3%
Compound 0.1 µM
  viability, T/C: 88.5% and 80.7%
Compound 0.316 µM
  viability, T/C: 73.6% and 65.8%
Compound 1 µM
  viability, T/C: 68.5% and 81%
Compound 3.16 µM
  viability, T/C: 92% and 112%
Compound 10 µM
  viability, T/C: 120% and 91.5%
Curve of compound
  IC50: > 10 µM
